Data reported in patent US20140187596A1, “FATTY ACID AMIDE HYDROLASE INHIHIBITORS FOR TREATING PAIN” (ALLERGAN, INC., priority 2011, published 2014).

Columns and labels:
Assay type in all cases: biochemical
[1] = biological target: IP receptor (Homo sapiens, UniProt P43119); assay: PG receptor antagonism, IP; parameters: unit not given here; conditions: antagonist activity at IP receptor
[2] = biological target: T1, TP receptor (Homo sapiens, UniProt P21731); assay: PG receptor antagonism, TP; parameters: unit not given here; conditions: antagonist activity at TP receptor
T1 sequence (P21731 1-343): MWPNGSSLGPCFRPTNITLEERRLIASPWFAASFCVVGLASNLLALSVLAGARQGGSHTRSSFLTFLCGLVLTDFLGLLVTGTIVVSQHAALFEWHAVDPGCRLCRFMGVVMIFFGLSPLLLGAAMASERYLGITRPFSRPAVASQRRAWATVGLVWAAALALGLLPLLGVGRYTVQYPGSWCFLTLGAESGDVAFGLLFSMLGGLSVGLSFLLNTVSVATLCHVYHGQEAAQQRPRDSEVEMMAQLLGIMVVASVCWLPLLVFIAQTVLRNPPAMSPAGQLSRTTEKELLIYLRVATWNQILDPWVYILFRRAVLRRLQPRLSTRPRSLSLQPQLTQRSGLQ

[3] = biological target: FP receptor (Homo sapiens, UniProt P43088); assay: PG receptor antagonism, FP; parameters: unit not given here; conditions: antagonist activity at FP receptor
Sequence of FP receptor (P43088 whole entry): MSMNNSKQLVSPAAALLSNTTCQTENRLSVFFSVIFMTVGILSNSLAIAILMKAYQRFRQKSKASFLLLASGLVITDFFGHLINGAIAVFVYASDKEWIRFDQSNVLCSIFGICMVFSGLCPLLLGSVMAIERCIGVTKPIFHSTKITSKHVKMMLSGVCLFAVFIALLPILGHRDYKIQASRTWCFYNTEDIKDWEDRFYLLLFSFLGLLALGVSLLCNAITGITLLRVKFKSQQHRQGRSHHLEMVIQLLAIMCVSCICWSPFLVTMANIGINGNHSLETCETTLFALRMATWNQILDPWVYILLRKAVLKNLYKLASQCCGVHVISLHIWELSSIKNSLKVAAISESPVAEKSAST

[4] = biological target: EP2 receptor (Homo sapiens, UniProt P43116); assay: PG receptor antagonism, EP2; conditions: antagonist activity at EP2 receptor
Sequence of EP2 receptor (P43116 whole entry): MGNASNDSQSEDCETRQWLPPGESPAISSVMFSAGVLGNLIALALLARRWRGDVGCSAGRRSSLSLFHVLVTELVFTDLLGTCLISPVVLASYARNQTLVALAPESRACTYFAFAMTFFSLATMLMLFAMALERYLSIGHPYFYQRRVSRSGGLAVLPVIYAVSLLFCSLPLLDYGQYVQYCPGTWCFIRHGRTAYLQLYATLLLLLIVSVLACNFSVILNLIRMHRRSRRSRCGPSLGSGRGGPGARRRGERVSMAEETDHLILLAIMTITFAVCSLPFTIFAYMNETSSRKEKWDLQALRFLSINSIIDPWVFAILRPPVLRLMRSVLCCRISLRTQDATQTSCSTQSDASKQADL

[5] = biological target: EP4 receptor (Homo sapiens, UniProt P35408); assay: PG receptor antagonism, EP4; parameters: unit not given here; conditions: antagonist activity at EP4 receptor
Sequence of EP4 receptor (P35408 whole entry): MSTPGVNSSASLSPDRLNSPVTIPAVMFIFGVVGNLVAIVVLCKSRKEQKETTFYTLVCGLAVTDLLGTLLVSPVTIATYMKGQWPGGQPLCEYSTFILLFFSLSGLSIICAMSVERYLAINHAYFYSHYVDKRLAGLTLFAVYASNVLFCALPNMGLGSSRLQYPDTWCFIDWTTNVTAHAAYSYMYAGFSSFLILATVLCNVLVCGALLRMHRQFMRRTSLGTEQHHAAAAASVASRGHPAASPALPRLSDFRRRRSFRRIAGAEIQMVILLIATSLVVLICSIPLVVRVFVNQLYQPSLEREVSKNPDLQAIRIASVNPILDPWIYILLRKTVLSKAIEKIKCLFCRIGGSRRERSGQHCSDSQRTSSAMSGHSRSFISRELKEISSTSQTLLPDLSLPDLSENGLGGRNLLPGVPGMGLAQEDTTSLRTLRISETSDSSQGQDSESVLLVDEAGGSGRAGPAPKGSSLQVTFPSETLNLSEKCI

[6] = biological target: T2, EP1 receptor (Homo sapiens, UniProt P34995); assay: PG receptor antagonism, EP1; parameters: unit not given here; conditions: antagonist activity at EP1 receptor
T2 sequence (P34995 1-402): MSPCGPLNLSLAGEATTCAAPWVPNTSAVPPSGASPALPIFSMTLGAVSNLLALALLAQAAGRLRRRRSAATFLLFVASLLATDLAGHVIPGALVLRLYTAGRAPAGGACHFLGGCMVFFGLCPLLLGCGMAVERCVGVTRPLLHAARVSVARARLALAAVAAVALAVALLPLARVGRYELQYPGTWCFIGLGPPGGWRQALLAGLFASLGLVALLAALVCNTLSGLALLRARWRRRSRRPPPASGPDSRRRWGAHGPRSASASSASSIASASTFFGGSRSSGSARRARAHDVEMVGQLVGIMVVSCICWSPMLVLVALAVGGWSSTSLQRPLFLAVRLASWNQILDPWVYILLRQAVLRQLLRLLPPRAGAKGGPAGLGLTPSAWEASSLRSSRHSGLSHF

[7] = biological target: T3, EP3 receptor (Homo sapiens, UniProt P43115); assay: PG receptor antagonism, EP3; parameters: unit not given here; conditions: antagonist activity at EP3 receptor
T3 sequence (P43115 1-390): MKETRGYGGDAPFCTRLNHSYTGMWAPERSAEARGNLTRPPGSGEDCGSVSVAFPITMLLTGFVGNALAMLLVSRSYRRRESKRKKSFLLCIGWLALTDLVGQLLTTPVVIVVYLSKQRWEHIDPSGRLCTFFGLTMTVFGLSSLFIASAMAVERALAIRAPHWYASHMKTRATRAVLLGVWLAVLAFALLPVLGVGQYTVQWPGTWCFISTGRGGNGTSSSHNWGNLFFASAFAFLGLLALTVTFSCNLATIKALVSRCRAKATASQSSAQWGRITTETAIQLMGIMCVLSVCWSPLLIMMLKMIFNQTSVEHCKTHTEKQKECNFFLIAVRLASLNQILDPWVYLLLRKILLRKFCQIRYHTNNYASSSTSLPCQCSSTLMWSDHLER

[8] = biological target: T4, DP receptor (Homo sapiens, UniProt Q13258); assay: PG receptor antagonism, DP; parameters: unit not given here; conditions: antagonist activity at DP receptor
T4 sequence (Q13258 1-359): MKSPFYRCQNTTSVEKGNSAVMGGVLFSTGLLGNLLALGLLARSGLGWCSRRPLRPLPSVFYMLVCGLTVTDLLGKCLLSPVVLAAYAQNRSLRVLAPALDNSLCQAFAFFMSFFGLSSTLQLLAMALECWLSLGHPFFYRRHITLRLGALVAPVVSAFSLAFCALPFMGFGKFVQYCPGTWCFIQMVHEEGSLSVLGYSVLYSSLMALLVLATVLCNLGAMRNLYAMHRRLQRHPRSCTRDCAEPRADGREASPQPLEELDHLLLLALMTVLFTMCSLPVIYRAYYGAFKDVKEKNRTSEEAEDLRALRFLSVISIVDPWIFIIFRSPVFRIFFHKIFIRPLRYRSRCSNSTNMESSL

Sequence of IP receptor (P43119 whole entry): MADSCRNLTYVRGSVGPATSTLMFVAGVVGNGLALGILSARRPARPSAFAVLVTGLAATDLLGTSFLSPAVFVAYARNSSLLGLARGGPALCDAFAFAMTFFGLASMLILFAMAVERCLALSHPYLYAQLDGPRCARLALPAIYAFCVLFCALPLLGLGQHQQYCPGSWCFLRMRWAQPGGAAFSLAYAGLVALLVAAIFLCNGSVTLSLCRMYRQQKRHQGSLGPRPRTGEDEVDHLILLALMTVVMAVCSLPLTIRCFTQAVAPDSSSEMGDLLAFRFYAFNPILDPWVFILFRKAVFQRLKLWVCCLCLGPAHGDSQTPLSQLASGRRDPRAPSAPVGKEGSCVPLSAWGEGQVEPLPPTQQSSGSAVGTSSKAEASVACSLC

| Compound | IP [1] | TP [2] | FP [3] | EP2 [4] | EP4 [5] | EP1 [6] | EP3 [7] | DP [8] |
| --- | --- | --- | --- | --- | --- | --- | --- | --- |
| CCCCCCCCCNC(=O)c1coc(C2C3CCC(O3)C2Cc2cc(F)ccc2CCC(=O)NS(=O)(=O)C(F)(F)F)n1 (stereo not drawn) [Example 8, 2-{3-[5-Fluoro-2-(3-oxo-3-trifluoromethanesulfonylamino-propyl)-benzyl]-7-oxa-bicyclo[2.2.1]hept-2-yl}-oxazole-4-carboxylic acid nonylamide] | 3300 | <1 | 50 | 4000 | 30 | 40 | 700 | 10 |
| CCCCCCCCNC(=O)c1coc(C2C3CCC(O3)C2Cc2cc(F)ccc2/C=C/C(=O)NS(=O)(=O)CC)n1 (stereo not drawn) [Example 7] | 3500 | <1 | 370 | – | 200 | 80 | 1900 | 45 |
| O=C(/C=C/c1ccc(F)cc1C[C@@H]1C(c2nc(C(=O)NCCCCC3CCCCC3)co2)C2CC[C@H]1O2)NS(=O)(=O)CC(F)(F)F (stereo partly drawn) [Example 4, (E)-3R-[2R-[[3-[4-[[(4-cyclohexylbutyl)amino]carbonyl]-2-oxazolyl]-7-oxabicyclo[2.2.1]hept-2-yl]methyl]-4-fluoro-phenyl]-N-(2,2,2-trifluoroethanesulfonyl)acrylic amide] | – | <1 | 130 | 5300 | 80 | 50 | 2500 | 80 |
| CS(=O)(=O)NC(=O)/C=C/c1ccc(F)cc1C[C@@H]1C(c2nc(C(=O)NCCCCC3CCCCC3)co2)C2CC[C@H]1O2 (stereo partly drawn) [Example 3, (E)-3R-[2R-[[3-[4-[[(4-cyclohexylbutyl)amino]carbonyl]-2-oxazolyl]-7-oxabicyclo[2.2.1]hept-2-yl]methyl]-4-fluoro-phenyl]-N-(methylsulfonyl)acrylic amide] | – | <1 | 90 | – | 100 | 65 | 790 | 30 |
| CCS(=O)(=O)NC(=O)/C=C/c1ccc(F)cc1C[C@@H]1C(c2nc(C(=O)NCCCCC3CCCCC3)co2)C2CC[C@H]1O2 (stereo partly drawn) [Example 2, (E)-3R-[2R-[[3-[4-[[(4-cyclohexylbutyl)amino]carbonyl]-2-oxazolyl]-7-oxabicyclo[2.2.1]hept-2-yl]methyl]-4-fluoro-phenyl]-N-(ethylsulfonyl)acrylic amide] | 1100 | <1 | 100 | – | 140 | 190 | 1600 | 50 |
| O=C(/C=C/c1ccc(F)cc1C[C@@H]1C(c2nc(C(=O)NCCCCC3CCCCC3)co2)C2CC[C@H]1O2)NS(=O)(=O)c1ccccc1 (stereo partly drawn) [Example 6, (E)-3R-[2R-[[3-[4-[[(4-cyclohexylbutyl)amino]carbonyl]-2-oxazolyl]-7-oxabicyclo[2.2.1]hept-2-yl]methyl]-4-fluoro-phenyl]-N-(benzenesulfonyl)acrylic amide] | 1500 | <1 | 100 | – | 380 | 60 | 290 | 60 |
| O=C(O)/C=C/c1ccc(F)cc1C[C@@H]1C(c2nc(C(=O)NCCCCC3CCCCC3)co2)C2CC[C@H]1O2 (stereo partly drawn) [Example 1, (E)-3-(2R-{3R-[4-(4-Cyclohexyl-butylcarbamoyl)-oxazol-2-yl]-7-oxa-bicyclo[2.2.1]hept-2-ylmethyl}-4-fluoro-phenyl)-acrylic acid] | – | <1 | 60 | – | 60 | 380 | 5500 | 70 |
